{"source": "patent US8349801B2", "about": "“Peptide ligands for G-protein coupled receptors” (priority 2006, dated 2013)", "tested_on": "aortic rings from Wistar rat", "experiment": "Vasorelaxant activity in phenylephrine pre-contracted aortic rings", "description": "Male Wistar rats of the age of 13-14 weeks (body weight: 250 to 300 g) were used. The rats were exposed to light-dark cycle of 12 hs (day—06:00 to 18:00; night—18:00 to 06:00) controlled by timer. Rats were killed by decapitation and exsanguination and tissues were rapidly removed.\nRings (3-4 mm) from the descending thoracic aorta, free of adipose and connective tissue, were set up in gassed (95% O2 and 5% CO2) Krebs-Henseleit solution (mmol/L): NaCl 110.8, KCl 5.9, NaHCO3 25.0, MgSO4 1.07, CaCl2 2.49, NaH2PO4 2.33 and glucose 11.51, at 37° C., under a tension of 1.0 g, for 1 hour to equilibrate. The presence of functional endothelium was assessed by the ability of Acetylcholine (1 μM) to induce more than 70% relaxation of vessels pre-contracted with phenylephrine (0.3 μM) (Lemos et al., 2005). When necessary, the endothelium was removed by rubbing the intimal surface with a wooden stick. Mechanical activity, recorded isometrically by a force transducer (Panlab, model number TR1210, Spain), was fed to an amplifier-recorder (Powerlab 4/20, ADInstruments, Inc.) and to a personal computer equipped with an analogue-to-digital converter board (AD16JR; World Precision Instruments, Inc.), using CVMS data acquisition/recording software (World Precision Instruments, Inc.).\nThe vasorelaxant activity of peptides —P61_S (SEQ ID NO:10), P61 (SEQ ID NO.9)-dimer (P61_D), P33_V (SEQ ID NO:7) and P33 (SEQ ID NO:6)-dimer (P33_D) were measured in vessels (N=5-8) with or without functional endothelium pre-contracted to the same tension level (approximately 1.5 g of tension) induced by submaximal concentrations of phenylephrine (0.01 μM). For comparison, the effect of Ang-(1-7) was also tested (N=4)\nP61_S (SEQ ID NO:10), P61 (SEQ ID NO9)-dimer (P61_D), P33_V (SEQ ID NO:7) or P33 (SEQ ID NO:6)-dimer (P33_D) were added in increasing cumulative concentrations (0.0001 to 1 μM) once the response to phenylephrine had stabilized (FIG. 28). In order to verify the participation of endothelium-derived products in the relaxant effect of peptides, experiments were performed in the presence of 100 μM N′-Nitro-L-Arginine Methyl Ester-[L-NAME]—a nonselective inhibitor of nitric oxide synthase. In experiments performed in the presence of L-NAME, vessels were pre-contracted with 0.03 μM of phenylephrine, to achieve the same tension level as the others. L-NAME was added to the bath 20 min prior to the addition of phenylephrine.\nResults are presented as mean±SEM. Two-way analysis of variance (ANOVA) with Bonferroni multiple comparison post-test was used to compare concentration response curves obtained in aortic rings. The vasodilator effect of P61_S (SEQ ID NO:10), P61 (SEQ ID N09)-dimer (P61_D), P33_V (SEQ ID NO:7), P33 (SEQ ID NO:6)-dimer (P33_D) and Ang-(1-7) were expressed as percentage decrease in maximal contraction induced by phenylephrine. All statistical analyses were considered significant when p<0.05.", "note": "No end group written: not given here.", "data": [{"sequence": "FLGYCIYLNRKRRGDPAFKRRLRD (also: dimer via cysteine; listed as Homo sapiens) [Peptide P61_dimer]", "values": [{"measurement": "vasodilator effect in the presence of L-NAME", "setting": "100 μM L-NAME, NO synthase inhibitor", "value": "markedly inhibited"}, {"measurement": "vasodilator effect in the absence of functional endothelium", "setting": "endothelium-denuded vessels", "value": "abolished"}, {"measurement": "Maximal values for the relaxant effect (Emax)", "setting": "vessels with endothelium, 0.0001 to 1 μM cumulative, mean±SEM", "value": "20.45±5.11", "unit": "%"}]}]}
